From patent publication US8134015B2, “Compound inhibiting in vivo phosphorous transport and medicine containing the same” (Kyowa Hakko Kirin Co., Ltd., priority 2003, dated 2012)

biological target: T1, rat NaPi-2b (Rattus norvegicus, UniProt Q9JJ09); experiment: Sodium-dependent phosphate uptake of Xenopus oocytes which expressed NaPi-2b (32P); format: cell-based; conditions: Xenopus oocytes expressing rat NaPi-2b, 32P radioactive phosphorus; read-out: IC50 (phosphate uptake inhibitory activity)
T1 construct: expressed in transfected cells; host or cells: Xenopus oocytes injected with cRNA
T1 sequence (Q9JJ09 1-695): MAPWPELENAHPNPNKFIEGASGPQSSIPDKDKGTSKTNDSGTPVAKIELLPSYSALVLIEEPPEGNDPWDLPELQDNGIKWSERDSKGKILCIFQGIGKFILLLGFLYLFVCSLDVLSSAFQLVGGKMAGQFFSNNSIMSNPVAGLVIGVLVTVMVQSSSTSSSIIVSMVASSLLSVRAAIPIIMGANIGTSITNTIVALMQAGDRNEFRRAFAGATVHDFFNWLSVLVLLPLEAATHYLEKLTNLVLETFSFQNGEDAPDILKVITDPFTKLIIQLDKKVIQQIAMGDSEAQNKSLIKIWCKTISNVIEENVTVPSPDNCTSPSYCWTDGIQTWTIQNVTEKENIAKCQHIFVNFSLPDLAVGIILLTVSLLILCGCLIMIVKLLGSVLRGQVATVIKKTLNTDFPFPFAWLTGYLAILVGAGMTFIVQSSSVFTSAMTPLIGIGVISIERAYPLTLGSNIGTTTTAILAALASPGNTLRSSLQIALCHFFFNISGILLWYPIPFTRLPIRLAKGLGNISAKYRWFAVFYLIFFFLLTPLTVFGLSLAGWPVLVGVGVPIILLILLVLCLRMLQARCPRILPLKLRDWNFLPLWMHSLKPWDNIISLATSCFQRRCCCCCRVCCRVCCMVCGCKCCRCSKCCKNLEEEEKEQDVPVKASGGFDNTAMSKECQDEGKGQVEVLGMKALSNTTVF
How it was run: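 Percent inhibition at 300 μM and 100 μM comes from the same inhibition curve of 32P uptake. Assay used oocytes expressing rat NaPi-2b after 2 days of culture.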

Row | Structure (SMILES) | IC50 [µM]
1 | O=C(Nc1ccc(Br)cc1C(=O)N/N=C/c1ccc(F)cc1)c1ccc(CN2CCC(CCO)CC2)cc1 [Compound 743, N-[4-Bromo-2-(4-fluoro-benzylidene-hydrazinocarbonyl)-phenyl]-4-[4-(2-hydroxy-ethyl)-piperidin-1-ylmethyl]-benzamide] | 14.4
2 | O=C(Nc1ccc(Br)cc1C(=O)N/N=C/c1ccc(Cl)c(C(F)(F)F)c1)c1ccc(CN2CCC(CCO)CC2)cc1 [Compound 745, N-[4-Bromo-2-(4-chloro-3-trifluoromethyl-benzylidene-hydrazinocarbonyl)-phenyl]-4-[4-(2-hydroxy-ethyl)-piperidin-1-ylmethyl]-benzamide] | 6.12
3 | COc1cccc(/C=N/NC(=O)c2cc(Br)ccc2NC(=O)c2ccc(CN3CCC(CCO)CC3)cc2)c1 [Compound 746, N-[4-Bromo-2-(3-methoxy-benzylidene-hydrazinocarbonyl)-phenyl]-4-[4-(2-hydroxy-ethyl)-piperidin-1-ylmethyl]-benzamide] | 16.8
4 | O=C(Nc1ccc(Br)cc1C(=O)NN=Cc1ccc(Cl)c(C(F)(F)F)c1)c1ccc(CNC(CN2CCOCC2)c2ccccc2)cc1 (centres unmarked) [Compound 747, N-[4-Bromo-2-(4-chloro-3-trifluoromethyl-benzylidene-hydrazinocarbonyl)-phenyl]-4-[(2-morpholin-4-yl-1-phenyl-ethylamino)-methyl]-benzamide] | 11.9
5 | CCN1CC(NCc2ccc(-c3nc4ccc(Br)cc4c(=O)n3/N=C/c3ccc(C)c(C)c3)cc2)CN1CC [Compound 749, 6-Bromo-2-{4-[(1,2-diethyl-pyrazolidin-4-ylamino)-methyl]-phenyl}-3-[(3,4-dimethyl-benzylidene)-amino]-3H-quinazolin-4-one] | 9.05
6 | CCN1CC(NCc2ccc(C(=O)Nc3ccc(Br)cc3C(=O)N/N=C/c3ccc(C)c(C)c3)cc2)CN1CC [Compound 750, N-[4-Bromo-2-(3,4-dimethyl-benzylidene-hydrazinocarbonyl)-phenyl]-4-[(1,2-diethyl-pyrazolidin-4-ylamino)-methyl]-benzamide] | < 3
7 | CCN1CC(NCc2ccc(-c3nc4ccc(Br)cc4c(=O)n3/N=C/c3cccc(F)c3)cc2)CN1CC [Compound 751, 6-Bromo-2-{4-[(1,2-diethyl-pyrazolidin-4-ylamino)-methyl]-phenyl}-3-[(3-fluoro-benzylidene)-amino]-3H-quinazolin-4-one] | 13.1
8 | CCN1CC(NCc2ccc(C(=O)Nc3ccc(Br)cc3C(=O)N/N=C/c3cccc(F)c3)cc2)CN1CC [Compound 752, N-[4-Bromo-2-(3-fluoro-benzylidene-hydrazinocarbonyl)-phenyl]-4-[(1,2-diethyl-pyrazolidin-4-ylamino)-methyl]-benzamide] | < 3
9 | CCN1CC(NCc2ccc(-c3nc4ccc(Br)cc4c(=O)n3/N=C/c3ccc(Cl)c(C(F)(F)F)c3)cc2)CN1CC [Compound 753, 6-Bromo-3-[(4-chloro-3-trifluoromethyl-benzylidene)-amino]-2-{4-[(1,2-diethyl-pyrazolidin-4-ylamino)-methyl]-phenyl}-3H-quinazolin-4-one] | 12.4
10 | CCN1CC(NCc2ccc(C(=O)Nc3ccc(Br)cc3C(=O)N/N=C/c3ccc(Cl)c(C(F)(F)F)c3)cc2)CN1CC [Compound 754, N-[4-Bromo-2-(4-chloro-3-trifluoromethyl-benzylidene-hydrazinocarbonyl)-phenyl]-4-[(1,2-diethyl-pyrazolidin-4-ylamino)-methyl]-benzamide] | < 3
11 | CCN1CC(NCc2ccc(C(=O)Nc3ccc(Br)cc3C(=O)N/N=C/c3ccc(OC)cc3)cc2)CN1CC [Compound 756, N-[4-Bromo-2-(4-methoxy-benzylidene-hydrazinocarbonyl)-phenyl]-4-[(1,2-diethyl-pyrazolidin-4-ylamino)-methyl]-benzamide] | 10.3
12 | Cc1ccc(/C=N/NC(=O)c2cc(Br)ccc2NC(=O)c2ccc(CNCCCN(C)c3ccccc3)cc2)cc1C [Compound 757, N-[4-Bromo-2-(3,4-dimethyl-benzylidene-hydrazinocarbonyl)-phenyl]-4-{[3-(methyl-phenyl-amino)-propylamino]-methyl}-benzamide] | 18.8
13 | COc1cccc(/C=N/NC(=O)c2cc(Br)ccc2NC(=O)c2ccc(CNCCCN(C)c3ccccc3)cc2)c1 [Compound 763, N-[4-Bromo-2-(3-methoxy-benzylidene-hydrazinocarbonyl)-phenyl]-4-{[3-(methyl-phenyl-amino)-propylamino]-methyl}-benzamide] | 11.2
14 | CCSCCNCc1ccc(C(=O)Nc2ccc(Br)cc2C(=O)N/N=C/c2ccc(C)c(C)c2)cc1 [Compound 764, N-[4-Bromo-2-(3,4-dimethyl-benzylidene-hydrazinocarbonyl)-phenyl]-4-[(2-ethylsulfanyl-ethylamino)-methyl]-benzamide] | 5.92
15 | CCSCCNCc1ccc(C(=O)Nc2ccc(Br)cc2C(=O)N/N=C/c2ccc(C)cc2)cc1 [Compound 765, N-[4-Bromo-2-(4-methyl-benzylidene-hydrazinocarbonyl)-phenyl]-4-[(2-ethylsulfanyl-ethylamino)-methyl]-benzamide] | 6.88

same assay, conditions: phosphate uptake, oocytes expressing rat NaPi-2b; 300 μM, determined from inhibition curve

Row | Structure (SMILES) | inhibition at 300 µM [%]
16 | CCOCCN(CCOCC)Cc1ccc(C(=O)Nc2ccc(Br)cc2C(=O)N/N=C/c2cccc(OC)c2)cc1 [Compound 740, 4-{[Bis-(2-ethoxy-ethyl)-amino]-methyl}-N-[4-bromo-2-(3-methoxy-benzylidene-hydrazinocarbonyl)-phenyl]-benzamide] | 58.5
17 | Cc1ccc(/C=N/NC(=O)c2cc(Br)ccc2NC(=O)c2ccc(CN3CCC(CCO)CC3)cc2)cc1 [Compound 741, N-[4-Bromo-2-(4-methyl-benzylidene-hydrazinocarbonyl)-phenyl]-4-[4-(2-hydroxy-ethyl)-piperidin-1-ylmethyl]-benzamide] | 50.9
18 | Cc1cccc(/C=N/NC(=O)c2cc(Br)ccc2NC(=O)c2ccc(CN3CCC(CCO)CC3)cc2)c1 [Compound 742, N-[4-Bromo-2-(3-methyl-benzylidene-hydrazinocarbonyl)-phenyl]-4-[4-(2-hydroxy-ethyl)-piperidin-1-ylmethyl]-benzamide] | 77.6
19 | O=C(Nc1ccc(Br)cc1C(=O)N/N=C/c1cccc(F)c1)c1ccc(CN2CCC(CCO)CC2)cc1 [Compound 744, N-[4-Bromo-2-(3-fluoro-benzylidene-hydrazinocarbonyl)-phenyl]-4-[4-(2-hydroxy-ethyl)-piperidin-1-ylmethyl]-benzamide] | 83.7
20 | COc1ccc(/C=N/NC(=O)c2cc(Br)ccc2NC(=O)c2ccc(CNC(CN3CCOCC3)c3ccccc3)cc2)cc1 (centres unmarked) [Compound 748, N-[4-Bromo-2-(4-methoxy-benzylidene-hydrazinocarbonyl)-phenyl]-4-[(2-morpholin-4-yl-1-phenyl-ethylamino)-methyl]-benzamide] | 56.5
21 | CCN1CC(NCc2ccc(-c3nc4ccc(Br)cc4c(=O)n3/N=C/c3ccc(OC)cc3)cc2)CN1CC [Compound 755, 6-Bromo-2-{4-[(1,2-diethyl-pyrazolidin-4-ylamino)-methyl]-phenyl}-3-[(4-methoxy-benzylidene)-amino]-3H-quinazolin-4-one] | 67.3
22 | Cc1ccc(/C=N/NC(=O)c2cc(Br)ccc2NC(=O)c2ccc(CNCCCN(C)c3ccccc3)cc2)cc1 [Compound 758, N-[4-Bromo-2-(4-methyl-benzylidene-hydrazinocarbonyl)-phenyl]-4-{[3-(methyl-phenyl-amino)-propylamino]-methyl}-benzamide] | 58.2
23 | CN(CCCNCc1ccc(C(=O)Nc2ccc(Br)cc2C(=O)N/N=C/c2ccc(F)cc2)cc1)c1ccccc1 [Compound 759, N-[4-Bromo-2-(4-fluoro-benzylidene-hydrazinocarbonyl)-phenyl]-4-{[3-(methyl-phenyl-amino)-propylamino]-methyl}-benzamide] | 63.9
24 | CN(CCCNCc1ccc(C(=O)Nc2ccc(Br)cc2C(=O)N/N=C/c2cccc(F)c2)cc1)c1ccccc1 [Compound 760, N-[4-Bromo-2-(3-fluoro-benzylidene-hydrazinocarbonyl)-phenyl]-4-{[3-(methyl-phenyl-amino)-propylamino]-methyl}-benzamide] | 73.3
25 | CN(CCCNCc1ccc(C(=O)Nc2ccc(Br)cc2C(=O)N/N=C/c2ccc(Cl)c(C(F)(F)F)c2)cc1)c1ccccc1 [Compound 761, N-[4-Bromo-2-(4-chloro-3-trifluoromethyl-benzylidene-hydrazinocarbonyl)-phenyl]-4-{[3-(methyl-phenyl-amino)-propylamino]-methyl}-benzamide] | 46.2
26 | COc1ccc(/C=N/NC(=O)c2cc(Br)ccc2NC(=O)c2ccc(CNCCCN(C)c3ccccc3)cc2)cc1 [Compound 762, N-[4-Bromo-2-(4-methoxy-benzylidene-hydrazinocarbonyl)-phenyl]-4-{[3-(methyl-phenyl-amino)-propylamino]-methyl}-benzamide] | 52.1
